Source: publication PMC6009956, “Design, synthesis and biological activity of N^4-phenylsubstituted-7H-pyrrolo[2,3-d]pyrimidin-4-amines as dual inhibitors of aurora kinase A and epidermal growth factor receptor kinase” (Journal of Enzyme Inhibition and Medicinal Chemistry, 2017)
Read-outs that look alike come from different tables or passages of the source.

Tests used:
EGFR = EGFR (Homo sapiens, UniProt P00533); test: ADP-Glo kinase assay, EGFR; format: biochemical; design: purchased BPS Bioscience (assay run externally by the vendor)
EGFR, sequence (P00533 25-1210): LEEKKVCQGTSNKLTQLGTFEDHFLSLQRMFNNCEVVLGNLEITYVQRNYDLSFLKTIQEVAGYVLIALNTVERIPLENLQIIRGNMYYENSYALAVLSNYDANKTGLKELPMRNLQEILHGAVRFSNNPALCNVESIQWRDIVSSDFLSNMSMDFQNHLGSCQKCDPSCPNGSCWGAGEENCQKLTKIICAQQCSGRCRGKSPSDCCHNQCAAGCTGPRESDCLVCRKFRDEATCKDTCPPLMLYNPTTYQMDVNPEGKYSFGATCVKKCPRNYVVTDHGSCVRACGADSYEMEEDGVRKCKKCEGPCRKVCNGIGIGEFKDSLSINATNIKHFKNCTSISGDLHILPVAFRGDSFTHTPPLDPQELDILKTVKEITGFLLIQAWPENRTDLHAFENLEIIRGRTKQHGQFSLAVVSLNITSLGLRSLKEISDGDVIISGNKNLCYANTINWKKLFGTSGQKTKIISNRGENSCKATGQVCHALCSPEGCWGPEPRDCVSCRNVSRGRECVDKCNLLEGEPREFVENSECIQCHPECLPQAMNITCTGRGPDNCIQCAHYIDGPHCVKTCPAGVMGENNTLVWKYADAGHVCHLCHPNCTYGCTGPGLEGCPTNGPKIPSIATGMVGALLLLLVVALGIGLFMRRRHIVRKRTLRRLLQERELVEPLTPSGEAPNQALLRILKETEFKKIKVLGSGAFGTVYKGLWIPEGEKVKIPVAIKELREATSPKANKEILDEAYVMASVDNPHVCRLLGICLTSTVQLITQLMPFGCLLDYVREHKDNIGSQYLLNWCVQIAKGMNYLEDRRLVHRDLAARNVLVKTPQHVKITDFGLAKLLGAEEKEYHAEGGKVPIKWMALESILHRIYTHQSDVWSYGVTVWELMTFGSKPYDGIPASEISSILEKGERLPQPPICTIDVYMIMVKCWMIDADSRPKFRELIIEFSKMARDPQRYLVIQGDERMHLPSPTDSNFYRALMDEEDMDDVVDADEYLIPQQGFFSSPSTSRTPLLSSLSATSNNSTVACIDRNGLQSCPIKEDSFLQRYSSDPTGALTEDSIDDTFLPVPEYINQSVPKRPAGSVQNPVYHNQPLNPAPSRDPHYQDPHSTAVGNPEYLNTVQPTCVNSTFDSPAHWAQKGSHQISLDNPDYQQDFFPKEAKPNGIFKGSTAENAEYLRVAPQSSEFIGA

aurora A kinase (AURKA) = target: T1, aurora A kinase (AURKA) (Homo sapiens, UniProt O14965); test: ADP-Glo kinase assay, Aurora A; format: biochemical
T1 construct: purchased BPS Bioscience (assay run externally by the vendor)
T1 sequence (O14965 1-403): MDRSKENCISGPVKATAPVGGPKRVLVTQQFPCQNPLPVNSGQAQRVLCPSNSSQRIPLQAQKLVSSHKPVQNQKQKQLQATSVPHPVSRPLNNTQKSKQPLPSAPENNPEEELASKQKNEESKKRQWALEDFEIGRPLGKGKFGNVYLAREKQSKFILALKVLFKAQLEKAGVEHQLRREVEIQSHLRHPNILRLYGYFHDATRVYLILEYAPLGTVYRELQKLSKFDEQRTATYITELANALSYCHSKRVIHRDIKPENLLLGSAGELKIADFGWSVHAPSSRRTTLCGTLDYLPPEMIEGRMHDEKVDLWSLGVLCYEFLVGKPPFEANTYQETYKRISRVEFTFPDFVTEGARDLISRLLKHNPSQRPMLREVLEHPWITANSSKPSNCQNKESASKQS

## COc1ccc(Nc2ncnc3[nH]ccc23)cc1 [Compound 6, N^4-(4-methoxyphenyl)-7H-pyrrolo[2,3-d]pyrimidine-4-amine]
EGFR
  EGFR inhibition (in words): micromolar EGFR inhibition
  Fold better for EGFR over AURKA: 2 fold
  Fold less potent than staurosporine against EGFR: seven-fold
EGFR; 10 µM ATP, triplicate, read-out: EGFR IC50 ± SD
  IC50: 2.94 ± 0.0944 µM
EGFR; 10 µM ATP/0.2 mg/ml Poly-Glu-Tyr, read-out: EGFR IC50 (dose-response curve, supplement)
  IC50: 3 µM
EGFR; Log[nM] 0
  EGFR % Activity Set1: 98%
  EGFR % Activity Set2: 102%
  EGFR % Activity Set3: 105%
EGFR; Log[nM] 1.0
  EGFR % Activity Set1: 102%
  EGFR % Activity Set2: 110%
  EGFR % Activity Set3: 108%
EGFR; Log[nM] 1.5
  EGFR % Activity Set1: 105%
  EGFR % Activity Set2: 106%
  EGFR % Activity Set3: 108%
EGFR; Log[nM] 2.0
  EGFR % Activity Set1: 99%
  EGFR % Activity Set2: 102%
  EGFR % Activity Set3: 104%
EGFR; Log[nM] 2.5
  EGFR % Activity Set1: 96%
  EGFR % Activity Set2: 93%
  EGFR % Activity Set3: 97%
EGFR; Log[nM] 3.0
  EGFR % Activity Set1: 72%
  EGFR % Activity Set2: 79%
  EGFR % Activity Set3: 78%
EGFR; Log[nM] 3.5
  EGFR % Activity Set1: 43%
  EGFR % Activity Set2: 48%
  EGFR % Activity Set3: 43%
EGFR; Log[nM] 4.0
  EGFR % Activity Set1: 23%
  EGFR % Activity Set2: 24%
  EGFR % Activity Set3: 22%
EGFR; Log[nM] 4.5
  EGFR % Activity Set1: 8%
  EGFR % Activity Set2: 9%
  EGFR % Activity Set3: 8%
EGFR; Log[nM] 5.0
  EGFR % Activity Set1: 4%
  EGFR % Activity Set2: 4%
  EGFR % Activity Set3: 4%
Aurora A kinase (AURKA); 10 µM ATP, triplicate, read-out: AURKA IC50 ± SD
  IC50: 6.68 ± 0.54 µM
Aurora A kinase (AURKA); 10 µM ATP/0.2 mg/ml Kemptide, read-out: Aurora A IC50 (dose-response curve, supplement)
  IC50: 6.7 µM
Aurora A kinase (AURKA); Log[nM] 0
  Aurora A % Activity Set1: 104%
  Aurora A % Activity Set2: 94%
  Aurora A % Activity Set3: 88%
Aurora A kinase (AURKA); Log[nM] 1.0
  Aurora A % Activity Set1: 95%
  Aurora A % Activity Set2: 89%
  Aurora A % Activity Set3: 91%
Aurora A kinase (AURKA); Log[nM] 1.5
  Aurora A % Activity Set1: 111%
  Aurora A % Activity Set2: 100%
  Aurora A % Activity Set3: 110%
Aurora A kinase (AURKA); Log[nM] 2.0
  Aurora A % Activity Set1: 100%
  Aurora A % Activity Set2: 95%
  Aurora A % Activity Set3: 96%
Aurora A kinase (AURKA); Log[nM] 2.5
  Aurora A % Activity Set1: 108%
  Aurora A % Activity Set2: 100%
  Aurora A % Activity Set3: 106%
Aurora A kinase (AURKA); Log[nM] 3.0
  Aurora A % Activity Set1: 88%
  Aurora A % Activity Set2: 91%
  Aurora A % Activity Set3: 84%
Aurora A kinase (AURKA); Log[nM] 3.5
  Aurora A % Activity Set1: 86%
  Aurora A % Activity Set2: 80%
  Aurora A % Activity Set3: 76%
Aurora A kinase (AURKA); Log[nM] 4.0
  Aurora A % Activity Set1: 30%
  Aurora A % Activity Set2: 33%
  Aurora A % Activity Set3: 27%
Aurora A kinase (AURKA); Log[nM] 4.5
  Aurora A % Activity Set1: 14%
  Aurora A % Activity Set2: 14%
  Aurora A % Activity Set3: 13%
Aurora A kinase (AURKA); Log[nM] 5.0
  Aurora A % Activity Set1: 8%
  Aurora A % Activity Set2: 6%
  Aurora A % Activity Set3: 4%
